{
  "source": "patent US5344930A",
  "about": "“Fluorine and phosphorous-containing amphiphilic molecules with surfactant properties” (Alliance Pharmaceutical Corp., priority 1993, dated 1994)",
  "key": {"[1]": {"tested_on": "mice", "experiment": "Injection into the tail vein of mice (deaths, growth)", "format": "in vivo", "conditions": "500 μl in NaCl 9%, 10 mice of 20-25g, observed for 35 days"}, "[2]": {"experiment": "Fluorocarbon (F-decalin) emulsions: average particle size and stability", "format": "physicochemical", "conditions": "perfluorodecalin (50% w/v) emulsions, 2 or 3% w/v sole surfactant, sonication", "procedure": "^a Emulsions prepared by microfluidization.\nAdditional stable perfluorodecalin (50% w/v) emulsions based on the perfluoroalkylated phosphatidylcholines 11 or 12 (2 or 3% w/v) as the sole surfactant have been prepared by sonication.\n^a Emulsions prepared by sonication\n^b The emulsions are stored at 25° C.\n^c The emulsions are stored at 50° C.\n^a All the emulsions are prepared by microfluidization and stored at\nThe new perfluoroalkylated surfactants were solubilized or dispersed into water. Then the fluorocarbon was added under agitation. Any emulsification method like sonication can be used but mechanical procedures such as microfluidization or high pressure homogenization are preferred. The emulsion obtained can be used as an O2 carrier. The significant stabilization effect which can be obtained by incorporating the new F-alkyl surfactants is illustrated for various emulsion formulations (see Tables above)."}, "[3]": {"experiment": "Liposome preparation: average size and stability", "format": "physicochemical", "procedure": "1) Lipid 12 dissolved in chloroform was placed in a round bottom flask and the solvent evaporated by rotation under argon to produce a uniform film of dry lipid. Residual traces of chloroform were removed under vacuum (10^-3 mm Hg, 3 h). Dried lipid is suspended in HEPES buffer (10^-2 M,pH 7), vortexed for 5 ran., then probe sonicated (dial 7 on a Branson B30 sonifier, Power 4, Pulse 50, 3 mn.) 15° C. above phase transition temperature, to produce a clear bluish dispersion. Final concentration of 12 is 3% (w/v). Average size measurements were realised by light scattering on a Coulter Model N4SD, sub-Micron Particle Analyser: 0,12 μm.\n2) Same dispersion procedure applied to powder lipid 12 produced a clear dispersion with an average particle size 0,12 μm.\nLiposomes were observed by electronic microscopy after freeze-etching as unilamellar and multilamellar vesicles."}},
  "data": [
    {"smiles": "C[N+](C)(C)CCOP(=O)([O-])OCC(COC(=O)CCCCC(F)(F)C(F)(F)C(F)(F)C(F)(F)C(F)(F)C(F)(F)F)OC(=O)CCCCC(F)(F)C(F)(F)C(F)(F)C(F)(F)C(F)(F)C(F)(F)F", "note": "(racemic) [Compound 12, 1,2-di [(11-F-hexyl)pentanoyl] 3-[2' -(N,N,N-trimethylamino)ethylphosphoryl] rac-glycerol]", "values": [
      {"measurement": "concentration of which injection caused no deaths and did not perturb the normal growth", "setting": "[1]", "value": 100000, "unit": "µg/mL"},
      {"measurement": "increase in average particle size", "setting": "[2]", "value": 10, "unit": "%"},
      {"measurement": "Average size of liposomes", "setting": "[3]; 3% (w/v), from dried lipid film, HEPES buffer pH 7, probe sonicated, light scattering", "value": "0,12 μm"},
      {"measurement": "average particle size of dispersion", "setting": "[3]; same dispersion procedure applied to powder lipid", "value": "0,12 μm"}
    ]}
  ]
}
